In US8895698B2, “Binding partners of antibodies specific for dendritic cell antigens” (The Corporation of the Trustees of the Order of the Sisters …, priority 2004, dated 2014):

How the values were obtained:
CMRF44Ab [1] = test: ELISA binding of peptide phage clones to CMRF44Ab; conditions: 12-mer phage libraries, confirmed by FACS blocking of CMRF44Ab binding to cell surface
Experimental: (§1) Peptide mimics were isolated from a phage display library using a library purchased from New England Biolabs called the PhD-12 Phage Display Peptide Library Kit (Cat No. #E8110S). The PhD-12 Phage Display Peptide Library Kit is based on a combinatorial library of random peptide 12-mers fused to a minor coat protein (pIII) of M13 phage. […] The library consists of ˜2.7×10^9 electroporated sequences, amplified once to yield ˜55 copies of each sequence in 10 μl of the supplied phage. The library is usually panned 3-4 times on the subject of study (usually antibody, but can use receptors, ligands etc.) with increasing stringency of washing at each step followed by analysis of individual clones for a consensus sequence binding to the test subject.
(§2) The consensus sequence of any peptides isolated from the library were be determined according to methods known to a person skilled in the art. ELISAs were then used to determine the binding of individual peptide phage clones or synthetic peptides (with or without repeats of the consensus sequence) to the original target (FIG. 1). Competitive binding assays were also used and analysed by FACS to determine true binding of the peptide sequences to the binding site of the target compared with the “natural” ligand or epitope (FIG. 2). Sequence analysis of the consensus sequence can determine what type of ligand is binding to the target or could give a true epitope, which may be used for database searches to find possible full-length sequences.
A consensus peptide sequence was identified for peptides which bind to CMRF44Ab from the 12-mer libraries using ELISA. Subsequent FACS analysis of phage peptide blocking of binding of CMRF44Ab to the cell surface also confirmed the peptide sequence. The peptide sequence appeared to be constrained to the N-terminus and the best sequence was AQKYQ (SEQ ID NO: 2) with apparent strong conservation at 1st, 3rd and 5th residues. A family of sequences were also identified and included ALKYQ (SEQ ID NO: 4), ALKEQ (SEQ ID NO: 5) and APKQQ (SEQ ID NO: 3). Further repeat panning of PhD-7 library was carried out to confirm the peptide sequence and identify other possible CMRF44 peptide antigen mimic sequences. […] Also, 3 rounds of repeat panning was carried out on combined 7-mer and 12-mer libraries (pooled together) with acid elution. Several clones sequences as well as pool of 3 round eluate. Results for CMRF-44 show an enrichment of the clone: ALKYQTGMPQSM (SEQ ID NO: 6) in both individual clones and the main strongest sequence in the pooled 3rd round eluate (FIG. 4).

CMRF44 scFv = test: FACS competitive binding: peptide blocking of CMRF44 scFv binding to natural antigen on KM-H2 cells; assay type: cell-based; conditions: 5-mer peptide alone, KM-H2 cells (FIG. 22)
Excerpt: (§3) FIG. 22 is a graphical representation of FACS data showing binding of CMRF44Ab and scFv binding to KM-H2 cells and blocking of binding to natural antigen by competition with peptide mimic.
as §2

CMRF44Ab [2] = test: FACS competitive binding: peptide blocking of CMRF44Ab binding to natural antigen on KM-H2 cells; assay type: cell-based; conditions: 5-mer peptide alone, KM-H2 cells (FIG. 22)
Excerpt: as §3, §2

CMRF44Ab [3] = test: Repeat panning of combined 7-mer and 12-mer phage peptide libraries on CMRF44Ab, sequencing of 3rd round clones and pooled eluate; assay type: binding; conditions: 3 rounds, combined 7-mer and 12-mer libraries, acid elution; individual clones and pooled 3rd round eluate (FIG. 4)
Excerpt: FIG. 4 is a graphical representation of sequence results of 3rd round combined 7 and 12-mer phage peptide library panning (CMRF44Ab).
as §1
A consensus peptide sequence was identified for peptides which bind to CMRF44Ab from the 12-mer libraries using ELISA. Subsequent FACS analysis of phage peptide blocking of binding of CMRF44Ab to the cell surface also confirmed the peptide sequence. The peptide sequence appeared to be constrained to the N-terminus and the best sequence was AQKYQ (SEQ ID NO: 2) with apparent strong conservation at 1st, 3rd and 5th residues. […]

Substance: AQKYQ
- consensus peptide sequence binding to CMRF44Ab (CMRF44Ab [1]): best sequence
- blocking of the engineered CMRF44 scFv (CMRF44 scFv): blocking
- blocking of CMRF44Ab (CMRF44Ab [2]): blocking

Substance: APKQQ
- consensus peptide sequence binding to CMRF44Ab (CMRF44Ab [1]): identified

Substance: ALKEQ
- consensus peptide sequence binding to CMRF44Ab (CMRF44Ab [1]): identified

Substance: ALKYQTGMPQSM [12-mer phage display peptide clone]
- enrichment of clone in panning (CMRF44Ab [3]): enrichment

Substance: ALKYQ
- consensus peptide sequence binding to CMRF44Ab (CMRF44Ab [1]): identified
